Patent US20210015889A1, “METHODS OF DISRUPTING A BIOFILM AND/OR PREVENTING FORMATION OF SAME” (Yeda Research and Development Co. Ltd., priority 2018, published 2021)

Columns and labels:
Format in all cases: cell-based
P. aeruginosa [1] = assay: P. aeruginosa biofilm formation, Crystal Violet Staining; settings: for combination effect on biofilm formation / biofilm formation: P. aeruginosa; for biofilm formation: single inhibitor (FIGS. 13-14); for biofilm development: P. aeruginosa submerged biofilm, single inhibitor (FIG. 6)
Description: (§1) Crystal Violet—From each individual culture, 20 μl samples from exponential phase and 180 μl of TSB broth were dispensed in the wells of sterile 96-wells flat-bottomed microtiter plate (Nunc) and incubated at 37° C. for 24 hours. The control well contained only TSB broth without inoculation. Following incubation, unbound cells were removed by inversion of the microtiter plate, followed by vigorous tapping on an absorbent paper. Subsequently, adhered cells were fixed for 30 minutes at […]. Adhered cells were stained by addition of 220 μl of crystal violet (0.5%) for 5 minutes. The stain was removed by exhaustive washing with distilled water. The plates were then allowed to dry. In order to quantify adhered cells, 220 μl of decoloring solution (95% ethanol) was added to each well for 15 minutes. The absorption of the eluted stain was measured at 590 nm.

P. aeruginosa [2] = assay: Survival of P. aeruginosa biofilm after exposure to ciprofloxacin or gentamicin (CFU); settings: alone or in combination (FIGS. 7 and 9)
Description: P. aeruginosa biofilms were grown in multi-well 24 wells plates in TSB for 12 hours. Following, biofilms were treated either in PBS or PBS applied with the indicated concentrations of DTNB, AHA, CIP and/or GM for 6 hours. Following treatment, the biofilms were mildly sonicated and serially diluted to assess the number of CFU within each group.

M. smegmatis colonies = assay: M. smegmatis colony biofilm on B4 agar with Ca acetate
P. aeruginosa [3] = assay: Ex vivo lung infection system (mouse lung explants infected with P. aeruginosa); settings: 37° C.; for lung colonization by P. aeruginosa / lung tissue death: mouse lung explants, ~2 days (FIGS. 10D and 11); for tissue damage (Hematoxylin/eosin histology): mouse lung tissue with P. aeruginosa, 2 days
From the text: FIG. 10A is a scanning Electron Microscopy (SEM) image of biofilms of partially bleached sputum sample from P. aeruginosa positive CF patient A4, containing bleach-resistant mineralized tissue. FIG. 10B is a SEM image of biofilms of partially bleached sputum sample from P. aeruginosa positive CF patient A62 (left), accompanied by an image taken with the backscattering mode (right), containing bleach-resistant mineralized tissue. […] P. aeruginosa strain PA14 expressing GFP (green) was used to infect a lung tissue (nucleoli of lung cells were stained with DAPI—blue). Lung tissue was harvested from one month old mice and incubated in DMEM 5% FCS at 37° C. for 2 days, in the presence of P. aeruginosa, sectioned and visualized. […] Lungs were harvested from one month old mice and tissue was incubated in DMEM 5% FCS, either with or without AHA, as indicated. To each sample, either P. aeruginosa or DMEM (control) was added. Samples were incubated at 37° C. for 2 days, sectioned, stained with Hematoxylin/eosin stain and visualized.
Lungs were harvested from one month old mice and tissue was incubated in DMEM 5% FCS, either with or without DTNB, as indicated. To each sample, either P. aeruginosa or DMEM (control) was added. Samples were incubated at 37° C. for 2 days, sectioned, stained with Hematoxylin/eosin stain and visualized.
Ex vivo lung infection system—Lungs were harvested from 2 mice (one month old) and placed in petri dishes containing DMEM 5% FCS. The tissue was divided into circular pieces 4 mm in diameter with a biopsy punch and transferred to a 24 wells plate (4-5 explants/well) with 450 μl DMEM containing 100 μg/ml carbenicillin (Sigma-Aldrich) and 0, 2.5, or 5 mg/ml AHA or DTNB. To each respective well, either 50 μl DMEM (control) or P. aeruginosa pretreated with 0, 2.5, or 5 mg/ml AHA or with 0, 1, 5 or 10 mM DTNB and diluted within DMEM to attain OD600 0.373 or 0.257, respectively, were added, with three technical repeats for each condition. The plates were incubated at 37° C. for ˜2 days (48-52 hours) and washed twice with PBS, fixed with PFA 4% for 10 minutes, and embedded in either cryosection (OCT) compound or paraffin. Paraffin samples were cut into 7 micron slices and stained with H&E; whereas cryosections were cut into 10 micron slices and placed on superfrost plus slides.

B. subtilis colonies [4] = assay: B. subtilis colony biofilm on B4 agar with Ca acetate
M. smegmatis = assay: Pellicle biofilm model, M. smegmatis in liquid B4; settings: liquid B4, 0.025% calcium acetate, 4 days (FIG. 4B)
Description: (§2) B. subtilis (FIG. 4A) and M. smegmatis (FIG. 4B) cells were grown in liquid B4 supplemented with 0.25% and 0.025% calcium acetate, respectively, and treated with AHA at the indicated concentrations. DMSO served as a positive control and a medium not supplemented with Ca served as a negative control. The images of the top view of the wells were taken following robust pellicles formed in the DMSO control—at 3 days for B. subtilis and at 4 days for M. smegmatis.

B. subtilis [5] = assay: Pellicle biofilm model, B. subtilis in liquid B4
Description: as §2
B. subtilis cells were grown in liquid B4 supplemented with 0.25% calcium acetate and treated with AHA at the indicated concentrations. DMSO served as a positive control and a medium not supplemented with Ca served as a negative control. The images of the top view of the wells were taken following 6 days; and the weight of the mineral was determined following removal of all organic material by bleaching.
Analysis of the weight of the minerals—(A) Thermogravimetric analysis (TGA) of the B. subtilis colonies was performed as described previously [Levi-Kalisman et al., J Chem Soc Dalton (2000), 3977-3982] for at-least three colonies materials combined for each time point. The weight loss associated with the calcite relates to the temperature range 650-800° C. Results are presented as an average of at-least three independent experiments. […]

B. subtilis colonies [6] = assay: FITC diffusion in colony cross-sections; settings: day 3 B. subtilis colonies, 0.025% Ca, 10 mg/ml AHA, 4 hours after FITC (FIG. 3E)
Description: (§3) B. subtilis and M. smegmatis colonies grown on 1.5% B4 agar, supplemented with Ca acetate. FIG. 3A is a schematic representation of the biomineralization reactions leading to bicarbonate production. […] Scale bars represent 2 mm. […] DMSO served as a positive control and a medium not supplemented with Ca served as a negative control. Scale bars represent 2 mm. […] Colonies were grown in a medium supplemented with 0.025% Ca and treated with 10 mg/ml AHA. DMSO served as a positive control and a medium not supplemented with Ca served as a negative control. Scale bars represent 2 mm in the upper panels; and 0.5 mm in the lower panels.
Imaging—All images were taken using a Nikon D3 camera or a Stereo Discovery V20″ microscope (Tochigi, Japan) with objectives Plan Apo S ×0.5 FWD 134 mm or Apo S ×1.0 FWD 60 mm (Zeiss, Goettingen, Germany) attached to a high-resolution microscopy Axiocam camera. Data were created and processed using Axiovision suite software (Zeiss). To visualize colony cross-sections, a warm low-melt agar was poured over the colony following incubation with FITC, and allowed to solidify at room temperature (RT). Following, slices were made with a razor blade and immediately visualized. All experiments were repeated at least 3 times, in technical triplicates, with similar results.

[7] = test system: P. aeruginosa pre-existing biofilm; assay: P. aeruginosa pre-existing biofilm, Crystal Violet Staining; settings: biofilms grown 12 hours in TSB, treated 6 hours in PBS (FIG. 8)
Description: P. aeruginosa biofilms were grown in multi-well 24 wells plates in TSB for 12 hours. Following, biofilms were treated either in PBS or PBS applied with the indicated concentrations of sodium vanadate, DTNB or AHA for 6 hours. Results are shown as intensity of crystal violet staining (OD595) compared with the initial absorbance prior to treatment.
as §1

[8] = test system: M. smegmatis planktonic cells; assay: Planktonic growth (OD600) of M. smegmatis in B4 medium; settings: B4 medium with Ca (FIG. 3C lower)
Description: as §3
(§4) Growth Analysis—To determine growth kinetics of planktonic bacteria,the cultures were grown for 15-30 hours at 30° C. in a plate reader (BioTek, Winooski, Vt., USA) and the optical density at 600 nm (OD600) was measured every 20 minutes. Results are presented as averages for 5-6 wells from a single representative experiment out of three.

P. aeruginosa [9] = assay: Planktonic growth of P. aeruginosa; settings: inhibitor concentrations used, data not shown
Description: as §4

B. subtilis [10] = assay: Planktonic growth (OD600) of B. subtilis in B4 medium; settings: B4 medium with Ca, AHA concentrations giving smooth colonies (FIG. 3C upper)
Description: as §3, §4

Row | Molecule | combination effect on biofilm formation (P. aeruginosa [1]; in combination with AHA (FIG. 13)) | combination effect on biofilm formation (P. aeruginosa [1]; in combination with DTNB (FIG. 14)) | biofilm formation (P. aeruginosa [1]) | sensitization to ciprofloxacin and gentamicin (P. aeruginosa [2]) | colony morphology (M. smegmatis colonies; 0.025% Ca, AHA concentrations tolerated by planktonic cells (FIG. 3D)) | growth, biofilm development and biomineralization (M. smegmatis colonies; inhibition of urease activity) | lung colonization by P. aeruginosa (P. aeruginosa [3]) | lung tissue death (P. aeruginosa [3]) | tissue damage (Hematoxylin/eosin histology) (P. aeruginosa [3]) | growth, biofilm development and biomineralization of colonies (B. subtilis colonies [4]; B. subtilis colonies on 1.5% B4 agar with Ca acetate (FIGS. 3A-E)) | colony morphology (B. subtilis colonies [4]; B. subtilis, medium with 0.25% Ca, AHA at indicated doses (FIG. 3B)) | growth, biofilm development and biomineralization in pellicle biofilm model (M. smegmatis) | non-soluble mineral production (B. subtilis [5]; B. subtilis pellicle, 0.25% calcium acetate, 6 days, mineral weight after bleaching (FIG. 5)) | growth, biofilm development and biomineralization in pellicle biofilm model (B. subtilis [5]; B. subtilis, liquid B4, 0.25% calcium acetate, 3 days (FIG. 4A)) | formation of diffusion barriers within the colony (B. subtilis colonies [6]) | biofilm development (P. aeruginosa [1]) | dispersal of pre-existing biofilm [7] | tolerance by planktonic cells [8] | effect on planktonic growth (P. aeruginosa [9]) | effect on planktonic growth (B. subtilis [10])
1 | sodium vanadate | synergistic | synergistic | inhibited biofilm formation |  |  |  |  |  |  |  |  |  |  |  |  |  |  |  |  | 
2 | CC(=O)NO [AHA, acetohydroxamic acid] |  |  | inhibited biofilm formation | sensitized the P. aeruginosa colonies to treatment with ciprofloxacin and gentamicin | less wrinkled colonies | inhibited growth, biofilm development and biomineralization | diminished lung colonization by P. aeruginosa | prevented lung tissue death | prevents tissue damage | inhibits growth, biofilm development and biomineralization | smooth colony morphology | inhibits growth, biofilm development and biomineralization | decreased non-soluble mineral production | inhibits growth, biofilm development and biomineralization | prevented the formation of the diffusion barriers within the colony | impaired biofilm development | able to disperse a pre-existing P. aeruginosa biofilm | well-tolerated | little or no effect on planktonic growth | little or no effect on planktonic growth
3 | O=C(O)c1cc(SSc2ccc([N+](=O)[O-])c(C(=O)O)c2)ccc1[N+](=O)[O-] [DTNB, 5,5′-Dithiobis (2-nitrobenzoic acid, DTNB)] |  |  | inhibited biofilm formation | sensitized the P. aeruginosa colonies to treatment with ciprofloxacin and gentamicin |  |  | diminished lung colonization by P. aeruginosa | prevented lung tissue death | prevents tissue damage |  |  |  |  |  |  | impaired biofilm development | able to disperse a pre-existing P. aeruginosa biofilm |  | little or no effect on planktonic growth | 
